Patent US20220249441A1, “Homodimeric Tobramycin Adjuvant Repurposes Novobiocin as an Effective Antibacterial Agent Against Gram-Negative Bacteria” (priority 2019, published 2022)
Values after ≈ are worked out from the molar mass of the structure shown.

Assays:
[1] = test system: panel of Gram-positive and Gram-negative bacteria; experiment: Antimicrobial susceptibility assay against a panel of bacteria; format: cell-based; conditions: some isolates
Method: (§1) Antimicrobial Susceptibility Assay. The in vitro antimicrobial activity of all compounds/antibiotics against a panel of bacteria was evaluated by microbroth dilution method in accordance with the Clinical and Laboratory Standards Institute (CLSI) guidelines (using ATCC strains as quality control strains) (54). Overnight grown bacterial cultures were diluted in saline to achieve a 0.5 McFarland turbidity, followed by 1:50 dilution in Mueller-Hinton broth (MHB) for inoculation to a final concentration of approximately 5×10^5 CFU/mL. […] The lowest concentration that prevented the visible growth of bacteria was defined as the MIC for each antimicrobial agent. The broth with or without bacterial cells was used as positive or negative control, respectively.

P. aeruginosa = experiment: Checkerboard assay (antibiotic + adjuvant combination MIC); format: cell-based, Pseudomonas aeruginosa
[2] = test system: P. aeruginosa PAO1 and efflux deficient mutants, MDR/XDR isolates; experiment: microbe, parasite or virus in culture; format: cell-based, Pseudomonas aeruginosa
Method: Antimicrobial Susceptibility Assay. The in vitro antimicrobial activity of all compounds/antibiotics against a panel of bacteria was evaluated by microbroth dilution method in accordance with the Clinical and Laboratory Standards Institute (CLSI) guidelines (using ATCC strains as quality control strains) (54). […] The broth with or without bacterial cells was used as positive or negative control, respectively.

P. aeruginosa PAO1 = experiment: Outer membrane permeabilization assay (NPN uptake); format: cell-based, Pseudomonas aeruginosa
Method: Outer Membrane Permeabilization Assay. […] Briefly, an overnight grown P. aeruginosa PAO1 culture was subcultured (1 in 100) in fresh LB broth and grown to a mid-logarithmic phase (approximately 2 h, OD600=0.5-0.6). The cells were harvested by centrifuging for 10 min at 1000 g and room temperature, washed twice in PBS, and resuspended in half volume of PBS. This suspension was used in standard microtiter plate assay. […] PMBN, a known outer membrane permeabilizer, served as a positive control while cells +NPN (without test compounds) served as a negative control. Four independent replicates were conducted, and the data were corrected for any background fluorescence.

[3] = test system: A. baumannii ATCC 17978 and resistant mutants; experiment: microbe, parasite or virus in culture; format: cell-based, Acinetobacter baumannii; conditions: Acinetobacter baumannii
Method: as §1
(§2) Development of Resistance Study. […] Tobramycin and colistin were included as controls. At 24-hour intervals, the cultures were assessed for growth. […] This serial passaging was repeated for 8 days.

A. baumannii ATCC 17978 = experiment: microbe, parasite or virus in culture; format: cell-based, Acinetobacter baumannii
Method: as §2

[4] = test system: MDR/XDR P. aeruginosa, Acinetobacter baumannii, Escherichia coli, Klebsiella pneumoniae, and Enterobacter cloacae; format: cell-based; conditions: tobramycin-susceptible and tobramycin-resistant Gram-negative bacteria strains
Method: Next, we investigated whether tobramycin by itself would potentiate novobiocin against Gram-negative bacteria.
Checkerboard Assay. Combination studies with different antibiotics were performed in 96-well plates as previously described (19). Briefly, the antibiotic of interest was serially diluted in MHB along the abscissa while the adjuvant (tobramycin homodimer) was serially diluted in MHB along the ordinate. This creates a 10×7 matrices wherein each well consists of a combination of different antibiotic and adjuvant concentrations. Overnight grown bacterial cultures were diluted in saline to achieve a 0.5 McFarland turbidity, followed by 1:50 dilution in Mueller-Hinton broth (MHB) for inoculation to a final concentration of approximately 5×10^5 CFU/mL. […] MIC was recorded as wells with the lowest concentration of drugs with no bacterial growth. The fractional inhibitory concentration (FIC) for each antibiotic was calculated by dividing the MIC of the antibiotic in the presence of adjuvant by the MIC of the antibiotic alone. Similarly, the FIC of adjuvant was calculated by dividing the MIC of the adjuvant in the presence of antibiotic by the MIC of the adjuvant alone. FIC index is the sum of both FICs. FIC indices of ≤0.5 were deemed synergistic; >0.5-4, no interaction; and >4, antagonistic.

[5] = P. aeruginosa PAO1, compound at 8 μM
[6] = PA 262-101856, compound at 8 μM
[7] = PA 264-104354, compound at 8 μM
[8] = PA O200 (efflux-deficient), compound at 8 μM
[9] = PA O750 (efflux-deficient), compound at 8 μM
[10] = tobramycin-resistant MDR/XDR isolates

Method for porcine erythrocytes: Hemolytic Assay. The hemolytic activities of the newly synthesized compounds were determined and quantified as the amount of hemoglobin released by lysing porcine erythrocytes. […] The final cell concentration used was 3×10^8 cells/mL. Compounds were serially diluted with PBS and added to wells in a 96-well plate at twice the desired concentrations. […] Intact erythrocytes were subsequently pelleted by centrifuging at 1000 g at 4° C. for 10 mins, and the supernatants were transferred to a new 96-well plate. […] Blood cells in PBS (0% hemolysis) and 0.1% Triton X-100 (100% hemolysis) were used as negative and positive controls, respectively. Percent hemolysis was calculated as [% hemolysis=(X−0%)/(100%−0%)], where X is the optical density values of the compounds at different concentrations (49).

NC[C@H]1O[C@H](O[C@H]2[C@H](OCCCCCCCCn3cc(CCCCO[C@@H]4[C@@H](O[C@H]5O[C@H](CO)[C@@H](O)[C@H](N)[C@H]5O)[C@H](N)C[C@H](N)[C@H]4O[C@H]4O[C@H](CN)[C@@H](O)C[C@H]4N)nn3)[C@@H](O[C@H]3O[C@H](CO)[C@@H](O)[C@H](N)[C@H]3O)[C@H](N)C[C@@H]2N)[C@H](N)C[C@@H]1O.O=C(O)C(F)(F)F.O=C(O)C(F)(F)F.O=C(O)C(F)(F)F.O=C(O)C(F)(F)F.O=C(O)C(F)(F)F.O=C(O)C(F)(F)F.O=C(O)C(F)(F)F.O=C(O)C(F)(F)F.O=C(O)C(F)(F)F.O=C(O)C(F)(F)F [Compound 3, Tobramycin Homodimer 3]
hemolysis of porcine erythrocytes (porcine erythrocytes): non-hemolytic

N=C(N)NC[C@H]1O[C@H](O[C@H]2[C@H](OCCCCCCCCCCCCN3CCN(c4cc5c(cc4F)c(=O)c(C(=O)O)cn5C4CC4)CC3)[C@@H](O[C@H]3O[C@H](CO)[C@@H](O)[C@H](NC(=N)N)[C@H]3O)[C@H](NC(=N)N)C[C@@H]2NC(=N)N)[C@H](NC(=N)N)C[C@@H]1O [Compound 27, Guanidinylated Tobramycin-Ciprofloxacin Conjugate]
intrinsic antimicrobial activity [1]: some modest residual activity | MIC of Aztreonam + compound (P. aeruginosa; [5]): 0.5 µg/mL | MIC of Ceftazidime + compound (P. aeruginosa; [5]): 0.25 µg/mL | MIC of Imipenem + compound (P. aeruginosa; [5]): 1 µg/mL | MIC of Piperacillin + compound (P. aeruginosa; [5]): 8 µg/mL | MIC of ATM in the presence of compound (P. aeruginosa; PA 259-96918, compound at 8 μM): 32 µg/mL | MIC of CAZ in the presence of compound (P. aeruginosa; PA 259-96918, compound at 8 μM): 512 µg/mL | MIC of IPM in the presence of compound (P. aeruginosa; PA 259-96918, compound at 8 μM): 64 µg/mL | MIC of ATM in the presence of compound (P. aeruginosa; PA 260-97103, compound at 8 μM): 8 µg/mL | MIC of CAZ in the presence of compound (P. aeruginosa; PA 260-97103, compound at 8 μM): 16 µg/mL | MIC of IPM in the presence of compound (P. aeruginosa; PA 260-97103, compound at 8 μM): 8 µg/mL | MIC of ATM in the presence of compound (P. aeruginosa; [6]): 32 µg/mL | MIC of CAZ in the presence of compound (P. aeruginosa; [6]): 16 µg/mL | MIC of IPM in the presence of compound (P. aeruginosa; [6]): 16 µg/mL | MIC of ATM in the presence of compound (P. aeruginosa; [7]): 32 µg/mL | MIC of CAZ in the presence of compound (P. aeruginosa; [7]): 128 µg/mL | MIC of IPM in the presence of compound (P. aeruginosa; [7]): 16 µg/mL | MIC of ATM in the presence of compound (P. aeruginosa; PA 86052, compound at 8 μM): 32 µg/mL | MIC of CAZ in the presence of compound (P. aeruginosa; PA 86052, compound at 8 μM): 32 µg/mL | MIC of IPM in the presence of compound (P. aeruginosa; PA 86052, compound at 8 μM): 16 µg/mL | MIC of ATM in the presence of compound (P. aeruginosa; PA 88949, compound at 8 μM): 32 µg/mL | MIC of CAZ in the presence of compound (P. aeruginosa; PA 88949, compound at 8 μM): 32 µg/mL | MIC of IPM in the presence of compound (P. aeruginosa; PA 88949, compound at 8 μM): 64 µg/mL | MIC of ATM in the presence of compound (P. aeruginosa; PA 91433, compound at 8 μM): 16 µg/mL | MIC of CAZ in the presence of compound (P. aeruginosa; PA 91433, compound at 8 μM): 4 µg/mL | MIC of IPM in the presence of compound (P. aeruginosa; PA 91433, compound at 8 μM): 8 µg/mL | MIC of ATM in the presence of compound (P. aeruginosa; PA 100036, compound at 8 μM): 16 µg/mL | MIC of CAZ in the presence of compound (P. aeruginosa; PA 100036, compound at 8 μM): 6 µg/mL | MIC of IPM in the presence of compound (P. aeruginosa; PA 100036, compound at 8 μM): 4 µg/mL | MIC of ATM in the presence of compound (P. aeruginosa; PA 101243, compound at 8 μM): 4 µg/mL | MIC of CAZ in the presence of compound (P. aeruginosa; PA 101243, compound at 8 μM): 16 µg/mL | MIC of IPM in the presence of compound (P. aeruginosa; PA 101243, compound at 8 μM): 4 µg/mL | MIC of ATM in the presence of compound (P. aeruginosa; PA 101885, compound at 8 μM): 4 µg/mL | MIC of CAZ in the presence of compound (P. aeruginosa; PA 101885, compound at 8 μM): 2 µg/mL | MIC of IPM in the presence of compound (P. aeruginosa; PA 101885, compound at 8 μM): 2 µg/mL | MIC of ATM in the presence of compound (P. aeruginosa; PA 107092, compound at 8 μM): 32 µg/mL | MIC of CAZ in the presence of compound (P. aeruginosa; PA 107092, compound at 8 μM): 32 µg/mL | MIC of IPM in the presence of compound (P. aeruginosa; PA 107092, compound at 8 μM): 32 µg/mL | MIC of ATM in the presence of compound (P. aeruginosa; PA 108590, compound at 8 μM): 2 µg/mL | MIC of CAZ in the presence of compound (P. aeruginosa; PA 108590, compound at 8 μM): 2 µg/mL | MIC of IPM in the presence of compound (P. aeruginosa; PA 108590, compound at 8 μM): 4 µg/mL | MIC of ATM in the presence of compound (P. aeruginosa; PA 109084, compound at 8 μM): 32 µg/mL | MIC of CAZ in the presence of compound (P. aeruginosa; PA 109084, compound at 8 μM): 32 µg/mL | MIC of IPM in the presence of compound (P. aeruginosa; PA 109084, compound at 8 μM): 16 µg/mL | MIC of ATM in the presence of compound (P. aeruginosa; PA 114228, compound at 8 μM): 8 µg/mL | MIC of CAZ in the presence of compound (P. aeruginosa; PA 114228, compound at 8 μM): 2 µg/mL | MIC of IPM in the presence of compound (P. aeruginosa; PA 114228, compound at 8 μM): 1 µg/mL | MIC of ATM in the presence of compound (P. aeruginosa; [8]): 0.06 µg/mL | MIC of CAZ in the presence of compound (P. aeruginosa; [8]): 0.25 µg/mL | MIC of IPM in the presence of compound (P. aeruginosa; [8]): 2 µg/mL | MIC of ATM in the presence of compound (P. aeruginosa; [9]): 0.06 µg/mL | MIC of CAZ in the presence of compound (P. aeruginosa; [9]): 0.25 µg/mL | MIC of IPM in the presence of compound (P. aeruginosa; [9]): 1 µg/mL | MIC of ATM in the presence of compound (P. aeruginosa; PAO1, compound at 8 μM): 0.5 µg/mL | MIC of CAZ in the presence of compound (P. aeruginosa; PAO1, compound at 8 μM): 0.25 µg/mL | MIC of IPM in the presence of compound (P. aeruginosa; PAO1, compound at 8 μM): 1 µg/mL | MIC ([2]; PA0750 (efflux-deficient)): 2 µg/mL (≈ 1.7 µM) | MIC ([2]; PAO1 (wild-type)): 32 µg/mL (≈ 27.2 µM) | MIC ([2]; PAO200 (second column so headed)): 16 µg/mL (≈ 13.6 µM)

NC[C@H]1O[C@H](O[C@H]2[C@H](O)[C@@H](O[C@H]3O[C@H](CO)[C@@H](O)[C@H](N)[C@H]3O)[C@H](N)C[C@@H]2N)[C@H](N)C[C@@H]1O [Tobramycin]
outer membrane permeabilization (NPN fluorescence) (P. aeruginosa PAO1): weak fluorescence | MIC ([3]; ATCC17978, 18 h, Mutant C (seven serial passages, sub-MICs novobiocin + 7.1 μM compound 1)): 1 µg/mL | MIC ([3]; ATCC17978, Mutant A (seven serial passages, sub-MICs novobiocin)): 1 µg/mL (≈ 2.14 µM) | MIC ([3]; ATCC17978, Mutant B (seven serial passages, sub-MICs colistin)): 0.25 µg/mL (≈ 0.535 µM) | MIC ([3]; ATCC17978, Wild-type A. baumannii ATCC 17978): 1 µg/mL (≈ 2.14 µM) | MIC (A. baumannii ATCC 17978; Acinetobacter baumannii, ATCC17978, 168 h, read-out: MIC after serial passaging): 512 µg/mL (≈ 1100 µM) | fold change in MIC (A. baumannii ATCC 17978; after 7 days of serial passaging): 512 fold | FICI with novobiocin [4]: 0.75 | interaction with antibiotics (checkerboard) (P. aeruginosa; PAO1, all antibiotics tested except tobramycin, vancomycin and colistin): not synergistic | FICI with ceftazidime or aztreonam (P. aeruginosa; [10]): 0.56-0.75 | tobramycin concentration at which synergy with imipenem was observed (P. aeruginosa; [10]): ≥ 100 µM | FICI with aztreonam, ceftazidime and imipenem (P. aeruginosa; tobramycin-susceptible MDR isolates): 0.75 | FICI with aztreonam, ceftazidime and imipenem (P. aeruginosa; wildtype P. aeruginosa): 0.75-1.00 | MIC ([2]; Pseudomonas aeruginosa): 1 µg/mL (≈ 2.14 µM) | MIC ([2]; Pseudomonas aeruginosa, PAO200 (first column so headed)): 1 µg/mL (≈ 2.14 µM) | MIC ([2]; Pseudomonas aeruginosa, PAO200 (second column so headed)): 1 µg/mL (≈ 2.14 µM)
